Experimental data reported in US10464977B2 (University of Maryland, Baltimore, priority 2016, dated 2019).
Residues, ends and D or L forms follow the SMILES beside them.

Key:
Sap9 = Sap9 (Candida albicans, UniProt Q59SU1); test: in vitro; details: 2 h, 37° C.; for degradation by Sap9 (in words): 3.13 μg mL^−1 Sap9, 150 μg mL^−1 peptide
Protocol: (§1) Experiments were done in 1 mM NaPB. The mixtures were incubated at 37° C. for 2 h, and NaPB with no Sap was used as a control. After the incubation, the samples were mixed with tricine sample buffer (without Coomassie Blue G-250, except in control samples) containing β-mercaptoethanol and boiled for 5 min at 100° C. to inactivate the proteases. The degraded and non-degraded peptides were separated by gel electrophoresis in 10-20% Tris-tricine gels (Bio-Rad), and the gels were then fixed in a 10% acetic acid/40% methanol/50% water mixture for 30 min. The fixed gels were stained with Bio-Safe Coomassie stain (Bio-Rad) for 1 h and washed with fresh water three times, once overnight and then twice for at least 2 h each time. The gels were imaged on a Chemidoc imager (Bio-Rad), and densitometric analysis was done with Image Lab software (Bio-Rad). […] Three replicates of the assay were done.
(§2) To measure the antifungal activity of the peptides following degradation by the Saps, the antifungal activity assay was performed as described above, except the peptides were first exposed to Saps. The peptide fragments were prepared by incubating each peptide (150 μg mL^−1) with 6.25 μg mL^−1 Sap9 or 18 μg mL^−1 Sap2 for 2 h at 37° C. The enzymes were then inactivated by heating at 100° C. for 5 min. As controls, each peptide was also incubated with only NaPB buffer. Samples were then stored at −20° C. until use in the antifungal activity assay.
(§3) The intact peptide was then separated from the degradation products using gel electrophoresis and quantified the level of degradation using densitometric analysis of Coomassie-stained gels.
(§4) To amplify differences in antifungal activity due to degradation by the Saps, the concentrations of the Saps was increased by at least two-fold compared to the concentrations used for the gel electrophoresis data in FIGS. 1A-1D (to 6.25 μg mL^−1 for Sap9 and 18 μg mL^−1 for Sap2).

Sap2 = Sap2 (Candida albicans, UniProt P0DJ06); test: in vitro; details: 6.25 μg mL^−1 Sap2, 150 μg mL^−1 peptide, 2 h, 37° C.
Sequence of Sap2 (P0DJ06 57-398): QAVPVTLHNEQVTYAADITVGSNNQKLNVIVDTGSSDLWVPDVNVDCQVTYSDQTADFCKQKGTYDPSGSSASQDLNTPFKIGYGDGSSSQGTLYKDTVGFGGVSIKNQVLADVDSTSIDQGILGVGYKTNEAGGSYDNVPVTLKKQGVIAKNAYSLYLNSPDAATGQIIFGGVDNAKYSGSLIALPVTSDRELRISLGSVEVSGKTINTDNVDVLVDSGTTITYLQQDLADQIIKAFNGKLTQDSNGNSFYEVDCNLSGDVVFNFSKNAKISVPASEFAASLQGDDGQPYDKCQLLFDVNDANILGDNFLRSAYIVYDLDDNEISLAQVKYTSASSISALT
Protocol: as §1, §2, §3, §4

Sequence of Sap9 (Q59SU1 18-520): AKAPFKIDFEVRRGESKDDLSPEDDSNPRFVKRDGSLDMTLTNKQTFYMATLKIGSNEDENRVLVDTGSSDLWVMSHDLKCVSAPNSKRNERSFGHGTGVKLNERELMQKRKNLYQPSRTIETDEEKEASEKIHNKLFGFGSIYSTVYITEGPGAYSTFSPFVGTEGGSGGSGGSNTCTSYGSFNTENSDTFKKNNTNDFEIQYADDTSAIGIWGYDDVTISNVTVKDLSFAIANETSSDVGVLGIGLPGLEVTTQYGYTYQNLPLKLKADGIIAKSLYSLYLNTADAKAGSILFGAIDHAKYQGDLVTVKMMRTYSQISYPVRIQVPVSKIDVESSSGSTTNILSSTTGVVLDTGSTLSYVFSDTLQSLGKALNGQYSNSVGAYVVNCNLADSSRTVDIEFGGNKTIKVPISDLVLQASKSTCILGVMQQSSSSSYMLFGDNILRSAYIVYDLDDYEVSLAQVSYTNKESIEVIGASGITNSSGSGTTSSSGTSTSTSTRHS

| Compound | degradation by Sap9 (in words) (Sap9) | degradation at higher Sap9 concentration (in words) (Sap9; 6.25 μg mL^−1 Sap9, 150 μg mL^−1 peptide) | degradation by Sap2 (in words) (Sap2) |
| --- | --- | --- | --- |
| CC(C)C[C@H](NC(=O)[C@H](Cc1ccc(O)cc1)NC(=O)CNC(=O)[C@H](Cc1c[nH]cn1)NC(=O)[C@H](Cc1c[nH]cn1)NC(=O)[C@H](CCCNC(=N)N)NC(=O)[C@H](CCCCN)NC(=O)[C@H](C)NC(=O)[C@H](Cc1c[nH]cn1)NC(=O)[C@H](CO)NC(=O)[C@@H](N)CC(=O)O)C(=O)N[C@@H](CCCNC(=N)N)C(=O)N[C@@H](CCCCN)C(=O)N[C@@H](Cc1ccccc1)C(=O)N[C@@H](Cc1c[nH]cn1)C(=O)N[C@@H](CCC(=O)O)C(=O)N[C@@H](CCCCN)C(=O)N[C@@H](Cc1c[nH]cn1)C(=O)N[C@@H](Cc1c[nH]cn1)C(=O)N[C@@H](CO)C(=O)N[C@@H](Cc1c[nH]cn1)C(=O)N[C@@H](CCCNC(=N)N)C(=O)NCC(=O)N[C@@H](Cc1ccc(O)cc1)C(=O)O [Peptide K11L] (H-DSHAKRHHGYLRKFHEKHHSHRGY-OH; N-terminus and C-terminus assumed) | greater degradation than their arginine-substituted counterparts or parent Hst-5 | not intact | – |
| C[C@H](NC(=O)[C@H](Cc1c[nH]cn1)NC(=O)[C@H](CO)NC(=O)[C@@H](N)CC(=O)O)C(=O)N[C@@H](CCCCN)C(=O)N[C@@H](CCCNC(=N)N)C(=O)N[C@@H](Cc1c[nH]cn1)C(=O)N[C@@H](Cc1c[nH]cn1)C(=O)NCC(=O)N[C@@H](Cc1ccc(O)cc1)C(=O)N[C@@H](CCCNC(=N)N)C(=O)N[C@@H](CCCNC(=N)N)C(=O)N[C@@H](CCCCN)C(=O)N[C@@H](Cc1ccccc1)C(=O)N[C@@H](Cc1c[nH]cn1)C(=O)N[C@@H](CCC(=O)O)C(=O)N[C@@H](CCCNC(=N)N)C(=O)N[C@@H](Cc1c[nH]cn1)C(=O)N[C@@H](Cc1c[nH]cn1)C(=O)N[C@@H](CO)C(=O)N[C@@H](Cc1c[nH]cn1)C(=O)N[C@@H](CCCNC(=N)N)C(=O)NCC(=O)N[C@@H](Cc1ccc(O)cc1)C(=O)O [Peptide K11R-K17R] (H-DSHAKRHHGYRRKFHERHHSHRGY-OH; N-terminus and C-terminus assumed) | no observable degradation | – | no observable degradation |
| CC(C)C[C@H](NC(=O)[C@H](Cc1c[nH]cn1)NC(=O)[C@H](Cc1ccccc1)NC(=O)[C@H](CCCCN)NC(=O)[C@H](CCCNC(=N)N)NC(=O)[C@H](CCCCN)NC(=O)[C@H](Cc1ccc(O)cc1)NC(=O)CNC(=O)[C@H](Cc1c[nH]cn1)NC(=O)[C@H](Cc1c[nH]cn1)NC(=O)[C@H](CCCNC(=N)N)NC(=O)[C@H](CCCCN)NC(=O)[C@H](C)NC(=O)[C@H](Cc1c[nH]cn1)NC(=O)[C@H](CO)NC(=O)[C@@H](N)CC(=O)O)C(=O)N[C@@H](CCCCN)C(=O)N[C@@H](Cc1c[nH]cn1)C(=O)N[C@@H](Cc1c[nH]cn1)C(=O)N[C@@H](CO)C(=O)N[C@@H](Cc1c[nH]cn1)C(=O)N[C@@H](CCCNC(=N)N)C(=O)NCC(=O)N[C@@H](Cc1ccc(O)cc1)C(=O)O [Peptide E16L] (H-DSHAKRHHGYKRKFHLKHHSHRGY-OH; N-terminus and C-terminus assumed) | increased compared to Hst-5 | – | increased compared to Hst-5 |
